Test results published in patent US9499502B2, “5-substituted iminothiazines and their mono- and dioxides as BACE inhibitors, compositions, and their use” (Merck Sharp & Dohme Corp., priority 2011, dated 2016).

molecular target: soluble human BACE1 catalytic domain (Homo sapiens (Human), UniProt P56817); test: BACE1 HTRF FRET Assay; settings: read-out: BACE1 % Inh. at 10 μM, at 10 μM
Sequence (P56817 75-416): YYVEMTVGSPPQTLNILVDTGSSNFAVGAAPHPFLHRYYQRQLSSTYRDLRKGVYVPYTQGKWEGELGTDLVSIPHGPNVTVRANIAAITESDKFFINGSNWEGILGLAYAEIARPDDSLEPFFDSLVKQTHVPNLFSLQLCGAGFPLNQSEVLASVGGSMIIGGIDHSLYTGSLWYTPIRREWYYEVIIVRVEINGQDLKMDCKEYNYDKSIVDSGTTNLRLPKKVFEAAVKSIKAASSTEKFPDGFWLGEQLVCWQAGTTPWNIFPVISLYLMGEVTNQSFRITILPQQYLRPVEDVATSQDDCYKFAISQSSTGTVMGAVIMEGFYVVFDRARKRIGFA

Row | inhibition at 10 µM [%] | SMILES
1 | 48 | CC1(C)C(=N)N[C@](C)(c2cc(NC(=O)C3CCOCC3)cc(F)c2F)CS1(=O)=O [Example 9bb]
2 | 48 | CN(C)CC(=O)Nc1cc(F)c(F)c([C@]2(C)CS(=O)(=O)C(C)(C)C(=N)N2)c1 [Example 9bw]

same assay, conditions: read-out: BACE1 Ki; Ki calculated from IC50 using the Cheng-Prusoff equation

Row | SMILES | Ki [nM]
3 | CC[C@@]1(C)C(=N)N[C@](C)(c2cc(NC(=O)c3ccc(F)cn3)ccc2F)CS1(=O)=O [Example 9cl-a] | 5.9
4 | CC[C@]1(C)C(=N)N[C@](C)(c2cc(NC(=O)c3ccc(F)cn3)ccc2F)CS1(=O)=O [Example 9cl-b] | 22.5
5 | CC[C@@]1(C)C(=N)N[C@](C)(c2cc(NC(=O)c3ccc(OC)cn3)ccc2F)CS1(=O)=O [Example 9cm-a] | 5.6
6 | C[C@@]1(c2cc(NC(=O)c3ccc(F)cn3)ccc2F)CS(=O)(=O)[C@@](C)(c2cccc(C(F)(F)F)c2)C(=N)N1 [Example 9co-a] | 5.8
7 | COCC(=O)Nc1ccc(F)c([C@]2(C)CS(=O)(=O)[C@@](C)(c3cccc(C(F)(F)F)c3)C(=N)N2)c1 [Example 9cp-a] | 18
8 | COc1cnc(C(=O)Nc2ccc(F)c([C@]3(C)CS(=O)(=O)[C@@](C)(C4CC4)C(=N)N3)c2)cn1 [Example 9cq-a] | 13.3
9 | C[C@]1(CC2CCOCC2)C(=N)N[C@](C)(c2cc(NC(=O)c3ccc(F)cn3)ccc2F)CS1(=O)=O [Example 9cr-a] | 2.1
10 | C[C@]1(CC2CCOCC2)C(=N)N[C@](C)(c2cc(NC(=O)c3ccc(Cl)cn3)ccc2F)CS1(=O)=O [Example 9cs-a] | 1.6
11 | COc1cnc(C(=O)Nc2ccc(F)c([C@]3(C)CS(=O)(=O)[C@@](C)(CC4CCOCC4)C(=N)N3)c2)cn1 [Example 9ct-a] | 3.9
12 | C[C@@]1(c2cc(NC(=O)c3ccc(F)cn3)ccc2F)CS(=O)(=O)[C@@](C)(c2ccccn2)C(=N)N1 [Example 9cv-a] | 7.8
13 | C[C@@]1(c2cc(NC(=O)c3ccc(Cl)cn3)ccc2F)CS(=O)(=O)[C@@](C)(c2ccccn2)C(=N)N1 [Example 9cw-a] | 4.4
14 | COc1ccc(C(=O)Nc2ccc(F)c([C@]3(C)CS(=O)(=O)[C@@](C)(c4ccccn4)C(=N)N3)c2)nc1 [Example 9cx-a] | 7.1
15 | C[C@@]1(c2cc(NC(=O)c3ccc(F)cn3)ccc2F)CS(=O)(=O)[C@@](C)(c2cccc(F)c2)C(=N)N1 [Example 9da-a] | 3.6
16 | COc1ccc(C(=O)Nc2ccc(F)c([C@]3(C)CS(=O)(=O)[C@](C)(c4cccc(F)c4)C(=N)N3)c2)nc1 [Example 9dc-b] | 216
17 | COc1cnc(C(=O)Nc2ccc(F)c([C@]3(C)CS(=O)(=O)[C@@](C)(c4cccc(F)c4)C(=N)N3)c2)cn1 [Example 9dd-a] | 3.9
18 | C[C@@]1(c2cc(NC(=O)c3ccc(C(F)(F)F)cn3)ccc2F)CS(=O)(=O)[C@@](C)(c2cccc(F)c2)C(=N)N1 [Example 9de-a] | 3.5
19 | C[C@@]1(c2cc(NC(=O)c3ccc(F)cn3)ccc2F)CS(=O)(=O)[C@@](C)(c2ccc(F)cc2)C(=N)N1 [Example 9df-a] | 2.3
20 | COc1cnc(C(=O)Nc2ccc(F)c([C@]3(C)CS(=O)(=O)[C@@](C)(c4ccc(F)cc4)C(=N)N3)c2)cn1 [Example 9dg-a] | 4.5
21 | C[C@]1(CC2CC2)C(=N)N[C@](C)(c2cc(NC(=O)c3ccc(F)cn3)ccc2F)CS1(=O)=O [Example 9dh-a] | 7.5
22 | C[C@@]1(c2cc(NC(=O)c3ccc(F)cn3)ccc2F)CS(=O)(=O)[C@](C)(CC2CC2)C(=N)N1 [Example 9dh-b] | 47.4

Row | SMILES | Ki [nM]
23 | C[C@]1(CC2CC2)C(=N)N[C@](C)(c2cc(NC(=O)c3ccc(Cl)cn3)ccc2F)CS1(=O)=O [Example 9di-a] | 4.3
24 | C[C@@]1(c2cc(NC(=O)c3ccc(Cl)cn3)ccc2F)CS(=O)(=O)[C@](C)(CC2CC2)C(=N)N1 [Example 9di-b] | 15.6
25 | COc1ccc(C(=O)Nc2ccc(F)c([C@]3(C)CS(=O)(=O)[C@@](C)(CC4CC4)C(=N)N3)c2)nc1 [Example 9dj-a] | 4.3
26 | COc1ccc(C(=O)Nc2ccc(F)c([C@]3(C)CS(=O)(=O)[C@](C)(CC4CC4)C(=N)N3)c2)nc1 [Example 9dj-b] | 26.9
27 | COc1cnc(C(=O)Nc2ccc(F)c([C@]3(C)CS(=O)(=O)[C@@](C)(CC4CC4)C(=N)N3)c2)cn1 [Example 9dk-a] | 7
28 | C[C@]1(CC2CC2)C(=N)N[C@](C)(c2cc(NC(=O)c3ccc(C(F)(F)F)cn3)ccc2F)CS1(=O)=O [Example 9dl-a] | 4.4
29 | C=CC[C@@]1(C)C(=N)N[C@](C)(c2cc(NC(=O)c3cnc(OC)cn3)ccc2F)CS1(=O)=O [Example 9dm-a] | 4
30 | C[C@@]1(c2cc(NC(=O)c3ccc(F)cn3)ccc2F)CS(=O)(=O)[C@@](C)(c2ccccc2F)C(=N)N1 [Example 9dn-a] | 21.4
31 | C[C@]1(CC(F)(F)F)C(=N)N[C@](C)(c2cc(NC(=O)c3ccc(F)cn3)ccc2F)CS1(=O)=O [Example 9dp-a] | 6.2
32 | COc1ccc(C(=O)Nc2ccc(F)c([C@]3(C)CS(=O)(=O)[C@@](C)(CC(F)(F)F)C(=N)N3)c2)nc1 [Example 9dq-a] | 8.5
33 | C[C@@]1(c2cc(NC(=O)c3ccc(F)cn3)ccc2F)CS(=O)(=O)[C@@](C)(C2CCOCC2)C(=N)N1 [Example 9ds-a] | 3.5
34 | COc1ccc(C(=O)Nc2ccc(F)c([C@]3(C)CS(=O)(=O)[C@@](C)(C4CCOCC4)C(=N)N3)c2)nc1 [Example 9dt-a] | 3
35 | COc1cnc(C(=O)Nc2ccc(F)c([C@]3(C)CS(=O)(=O)[C@@](C)(C4CCOCC4)C(=N)N3)c2)cn1 [Example 9du-a] | 3.4
36 | C[C@@]1(c2cc(NC(=O)c3ccc(F)cn3)ccc2F)CS(=O)(=O)[C@@](C)(C2CCC2)C(=N)N1 [Example 9dv-a] | 7
37 | COc1cnc(C(=O)Nc2ccc(F)c([C@]3(C)CS(=O)(=O)[C@@](C)(C4CCC4)C(=N)N3)c2)cn1 [Example 9dy-a] | 7.5
38 | C[C@@]1(c2cc(NC(=O)c3ccc(C(F)(F)F)cn3)ccc2F)CS(=O)(=O)[C@@](C)(C2CCC2)C(=N)N1 [Example 9dz-a] | 3.4
39 | CC(C)[C@@]1(C)C(=N)N[C@](C)(c2cc(NC(=O)c3ccc(F)cn3)ccc2F)CS1(=O)=O [Example 9ea-a] | 31.6
40 | COc1ccc(C(=O)Nc2ccc(F)c([C@]3(C)CS(=O)(=O)[C@@](C)(C(C)C)C(=N)N3)c2)nc1 [Example 9eb-a] | 16.5
41 | C[C@@]1(c2cc(NC(=O)c3ccc(F)cn3)ccc2F)CS(=O)(=O)[C@@](C)(c2cc(C(F)(F)F)ccn2)C(=N)N1 [Example 9ed-a] | 1.6
42 | C[C@@]1(c2cc(NC(=O)c3ccc(F)cn3)ccc2F)CS(=O)(=O)[C@@](C)(c2cc(C(F)(F)F)ccn2)C(=N)N1 [Example 9ed-b] | 15.1

Continued, values first:

Row | Ki [nM] | SMILES
43 | 708 | CC1(C(=O)Nc2cc(F)c(F)c([C@]3(C)CS(=O)(=O)C(C)(C)C(=N)N3)c2)CC1 [Example 9az]
44 | < 0.5 | CC1(C)C(=N)N[C@](C)(c2cc(NC(=O)c3ccc(C#N)cn3)ccc2F)CS1(=O)=O [Example 9b]
45 | 703 | CC1(C)C(=N)N[C@](C)(c2cc(NC(=O)CC(F)(F)F)cc(F)c2F)CS1(=O)=O [Example 9bc]
46 | 429 | CCC(=O)Nc1cc(F)c(F)c([C@]2(C)CS(=O)(=O)C(C)(C)C(=N)N2)c1 [Example 9be]
47 | 485 | CC1(C)C(=N)N[C@](C)(c2cc(NC(=O)C3(C#N)CC3)cc(F)c2F)CS1(=O)=O [Example 9bj]
48 | 218 | CC1(C)C(=N)N[C@](C)(c2cc(NC(=O)[C@H]3CCCO3)cc(F)c2F)CS1(=O)=O [Example 9bm]
49 | 1020 | CC(=O)Nc1cc(F)c(F)c([C@]2(C)CS(=O)(=O)C(C)(C)C(=N)N2)c1 [Example 9bn]
50 | 1150 | CC1(C(=O)Nc2cc(F)c(F)c([C@]3(C)CS(=O)(=O)C(C)(C)C(=N)N3)c2)COC1 [Example 9bp]
51 | 4960 | Cc1noc(CC(=O)Nc2cc(F)c(F)c([C@]3(C)CS(=O)(=O)C(C)(C)C(=N)N3)c2)n1 [Example 9bq]
52 | 610 | CC1(C)C(=N)N[C@](C)(c2cc(NC(=O)C3CCC3(F)F)cc(F)c2F)CS1(=O)=O (some centres unmarked) [Example 9br]
53 | 171 | CC1(C)C(=N)N[C@](C)(c2cc(NC(=O)c3ccno3)cc(F)c2F)CS1(=O)=O [Example 9bs]
54 | 721 | CC1(C)C(=N)N[C@](C)(c2cc(NC(=O)C3CCC3)cc(F)c2F)CS1(=O)=O [Example 9bt]
55 | 1340 | CC1(C)C(=N)N[C@](C)(c2cc(NC(=O)CC3CC3)cc(F)c2F)CS1(=O)=O [Example 9bv]
56 | 7070 | CC1(C)C(=N)N[C@](C)(c2cc(NC(=O)Cc3ncccn3)cc(F)c2F)CS1(=O)=O [Example 9bx]
57 | 0.6 | CC1(C)C(=N)N[C@](C)(c2cc(NC(=O)c3ccc(OC(F)F)cn3)ccc2F)CS1(=O)=O [Example 9c]
58 | 48 | CC1(C)C(=N)N[C@](C)(c2nc(NC(=O)c3ccc(F)cn3)ccc2F)CS1(=O)=O [Example 9cd]
59 | 55.1 | COc1ccc(C(=O)Nc2ccc(F)c([C@]3(C)CS(=O)(=O)C(C)(C)C(=N)N3)n2)nc1 [Example 9ce]
60 | 101 | CC1(C)C(=N)N[C@](C)(c2nc(NC(=O)c3ccncn3)ccc2F)CS1(=O)=O [Example 9ch]
61 | 5.4 | COc1cnc(C(=O)Nc2ccc(F)c([C@]3(C)CS(=O)(=O)C(C)(C)C(=N)N3)c2)c(F)c1 [Example 9d]
62 | 0.7 | CC1(C)C(=N)N[C@](C)(c2cc(NC(=O)c3cnc(C(F)(F)F)cn3)ccc2F)CS1(=O)=O [Example 9e]
63 | 11 | CC1(C)C(=N)N[C@](C)(c2cc(NC(=O)c3ccc(F)cc3F)ccc2F)CS1(=O)=O [Example 9f]
64 | 1.9 | Cc1nc(C(=O)Nc2ccc(F)c([C@]3(C)CS(=O)(=O)C(C)(C)C(=N)N3)c2)no1 [Example 9g]
65 | 2.7 | Cc1noc(C(=O)Nc2ccc(F)c([C@]3(C)CS(=O)(=O)C(C)(C)C(=N)N3)c2)n1 [Example 9h]
66 | 0.6 | CC1(C)C(=N)N[C@](C)(c2cc(NC(=O)c3ccn(C(F)F)n3)ccc2F)CS1(=O)=O [Example 9j]
67 | 9.7 | CC1(C)C(=N)N[C@](C)(c2cc(NC(=O)c3ccc(F)cn3)cc(F)c2F)CS1(=O)=O [Example 9k]
68 | 4.3 | CC1(C)C(=N)N[C@](C)(c2cc(NC(=O)c3ccc(Cl)cn3)cc(F)c2F)CS1(=O)=O [Example 9l]
